Data published in ChEMBL document CHEMBL1154479, “Newer GABA derivatives for the treatment of epilepsy including febrile seizures: a bioisosteric approach” (Eur J Med Chem, 2008).
Activity calls are given as the source filed them. The calls are words filed in the database; no cut-off is given here.

Key:
Mus musculus [1] = assay: Anticonvulsant activity in Swiss albino mouse assessed as inhibition of subcutaneous strychnine-induced seizures at 300 mg/kg, ip administered 30 mins before STY challenge measured after 4 hrs post STY challenge; type: functional, organism-based; design: dose 300 mg/kg
Mus musculus [2] = assay: Anticonvulsant activity in Swiss albino mouse assessed as inhibition of maximal electroshock-induced seizures at 300 mg/kg, ip administered 30 mins before electroshock measured after 0.5 hrs post electroshock; type: functional, organism-based; design: dose 300 mg/kg
Mus musculus [3] = assay: Anticonvulsant activity in Swiss albino mouse assessed as inhibition of subcutaneous strychnine-induced seizures at 300 mg/kg, ip administered 30 mins before STY challenge measured after 0.5 hrs post STY challenge; type: functional, organism-based; design: dose 300 mg/kg
Mus musculus [4] = assay: Anticonvulsant activity in Swiss albino mouse assessed as inhibition of subcutaneous pentylenetetrazole-induced seizures at 300 mg/kg, ip administered 30 mins before PTZ challenge measured after 0.5 hrs post PTZ challenge; type: functional, organism-based; design: dose 300 mg/kg
Rattus norvegicus = assay: Anticonvulsant activity in Wistar rat assessed as protection against hyperthermia-induced seizures at 100 mg/kg, ip relative to control; type: functional; conditions: route intraperitoneal
Mus musculus [5] = assay: Anticonvulsant activity in Swiss albino mouse assessed as inhibition of subcutaneous picrotoxin-induced seizures at 300 mg/kg, ip administered 30 mins before PIC challenge measured after 4 hrs post PIC challenge; type: functional, organism-based; design: dose 300 mg/kg
Mus musculus [6] = assay: Neurotoxicity in Swiss albino mouse assessed as inability of animal to maintain equilibrium on the rod for at least 1 min at 300 mg/kg, ip after 0.5 hrs by rotarod test; type: toxicity, organism-based; design: dose 300 mg/kg, route intraperitoneal; conditions: in vivo
Mus musculus [7] = assay: Anticonvulsant activity in Swiss albino mouse assessed as inhibition of subcutaneous pentylenetetrazole-induced seizures at 300 mg/kg, ip administered 30 mins before PTZ challenge measured after 4 hrs post PTZ challenge; type: functional, organism-based; design: dose 300 mg/kg
Mus musculus [8] = assay: Neurotoxicity in ip dosed Swiss albino mouse assessed as inability of animal to maintain equilibrium on the rod for at least 1 min after 4 hrs by rotarod test; type: toxicity, organism-based; conditions: in vivo
Mus musculus [9] = assay: Neurotoxicity in Swiss albino mouse assessed as inability of animal to maintain equilibrium on the rod for at least 1 min at 300 mg/kg, ip after 4 hrs by rotarod test; type: toxicity, organism-based; design: dose 300 mg/kg, route intraperitoneal; conditions: in vivo
Mus musculus [10] = assay: Anticonvulsant activity in ip dosed Swiss albino mouse assessed as inhibition of subcutaneous strychnine-induced seizures administered 30 mins before STY challenge measured after 0.5 hrs post STY challenge; type: functional
Mus musculus [11] = assay: Neurotoxicity in ip dosed Swiss albino mouse assessed as inability of animal to maintain equilibrium on the rod for at least 1 min after 0.5 hrs by rotarod test; type: toxicity, organism-based; conditions: in vivo
Mus musculus [12] = assay: Anticonvulsant activity in ip dosed Swiss albino mouse assessed as inhibition of subcutaneous picrotoxin-induced seizures administered 30 mins before PIC challenge measured after 0.5 hrs post PIC challenge; type: functional
Mus musculus [13] = assay: Anticonvulsant activity in ip dosed Swiss albino mouse assessed as inhibition of subcutaneous picrotoxin-induced seizures administered 30 mins before PIC challenge measured after 4 hrs post PIC challenge; type: functional
Mus musculus [14] = assay: Anticonvulsant activity in ip dosed Swiss albino mouse assessed as inhibition of subcutaneous pentylenetetrazole-induced seizures administered 30 mins before PTZ challenge measured after 4 hrs post PTZ challenge; type: functional
Mus musculus [15] = assay: Anticonvulsant activity in ip dosed Swiss albino mouse assessed as inhibition of subcutaneous pentylenetetrazole-induced seizures administered 30 mins before PTZ challenge measured after 0.5 hrs post PTZ challenge; type: functional
Mus musculus [16] = assay: Anticonvulsant activity in Swiss albino mouse assessed as inhibition of subcutaneous picrotoxin-induced seizures at 300 mg/kg, ip administered 30 mins before PIC challenge measured after 0.5 hrs post PIC challenge; type: functional, organism-based; design: dose 300 mg/kg
Mus musculus [17] = assay: Anticonvulsant activity in ip dosed Swiss albino mouse assessed as inhibition of maximal electroshock-induced seizures administered 30 mins before electroshock measured after 0.5 hrs post electroshock; type: functional
Mus musculus [18] = assay: Anticonvulsant activity in ip dosed Swiss albino mouse assessed as inhibition of subcutaneous strychnine-induced seizures administered 30 mins before STY challenge measured after 4 hrs post STY challenge; type: functional

| SMILES | Activity (Mus musculus [1]) | Activity (Mus musculus [2]) | Activity (Mus musculus [3]) | Activity (Mus musculus [4]) | Activity (Rattus norvegicus) [%] | Activity (Mus musculus [5]) | Activity (Mus musculus [6]) | Activity (Mus musculus [7]) | Activity (Mus musculus [8]) [mg/kg] | Activity (Mus musculus [9]) | Activity (Mus musculus [10]) [mg/kg] | Activity (Mus musculus [11]) [mg/kg] | Activity (Mus musculus [12]) [mg/kg] | Activity (Mus musculus [13]) [mg/kg] | Activity (Mus musculus [14]) [mg/kg] | Activity (Mus musculus [15]) [mg/kg] | Activity (Mus musculus [16]) | Activity (Mus musculus [17]) [mg/kg] | Activity (Mus musculus [18]) [mg/kg] |
| --- | --- | --- | --- | --- | --- | --- | --- | --- | --- | --- | --- | --- | --- | --- | --- | --- | --- | --- | --- |
| O=C(O)CCCNC(=S)NN=C(Cc1ccccc1)Cc1ccccc1 | inactive | inactive | inactive | inactive | 73 | inactive | Non-toxic | inactive | 300 | – | – | – | – | – | – | – | – | – | – |
| O=C(O)CCCNC(=S)N/N=C(\c1ccccc1)c1ccc(Br)cc1 | inactive | inactive | – | inactive | 19 | – | – | inactive | – | Non-toxic | 100 | 300 | – | – | – | – | – | – | – |
| O=C(O)CCCNC(=S)N/N=C/c1ccc([N+](=O)[O-])cc1 | inactive | inactive | inactive | inactive | 85 | – | Non-toxic | inactive | – | Non-toxic | – | – | 300 | 300 | – | – | – | – | – |
| O=C(O)CCCNC(=S)N/N=C/c1cccc([N+](=O)[O-])c1 | inactive | inactive | – | inactive | 51 | – | Non-toxic | – | – | Non-toxic | 300 | – | 100 | 100 | 300 | – | – | – | – |
| O=C(O)CCCNC(=S)NN=C1CCCC1 | inactive | inactive | inactive | – | 71 | inactive | Non-toxic | inactive | – | Non-toxic | – | – | – | – | – | 100 | inactive | – | – |
| O=C(O)CCCNC(=S)NN=C(c1ccccc1)c1ccccc1 | inactive | – | inactive | inactive | 83 | – | Non-toxic | inactive | – | Non-toxic | – | – | – | – | – | – | – | 300 | – |
| O=C(O)CCCNC(=S)N/N=C/c1ccc(Cl)cc1 | – | inactive | – | – | 49 | – | – | inactive | – | Non-toxic | 300 | 100 | – | – | – | 100 | – | – | 300 |
| C/C(=N\NC(=S)NCCCC(=O)O)c1ccc([N+](=O)[O-])cc1 | inactive | inactive | inactive | inactive | 46 | inactive | – | inactive | 100 | – | – | 100 | – | – | – | – | inactive | – | – |
| CCC1(C)CC(=O)NC1=O (configuration not stated) [ETHOSUXIMIDE] | inactive | inactive | inactive | – | – | inactive | Non-toxic | inactive | – | Non-toxic | – | – | – | – | – | 300 | inactive | – | – |
| O=C(O)CCCNC(=S)N/N=C1\C(=O)Nc2ccccc21 | inactive | inactive | inactive | – | 92 | – | Non-toxic | inactive | – | Non-toxic | – | – | 300 | 300 | – | 30 | – | – | – |
| Nc1nnc(-c2cccc(Cl)c2Cl)c(N)n1 [LAMOTRIGINE] | inactive | – | inactive | – | 51 | inactive | – | inactive | 100 | – | – | 100 | – | – | – | 30 | inactive | 30 | – |
| C/C(=N\NC(=S)NCCCC(=O)O)c1cccc(N)c1 | inactive | inactive | inactive | inactive | 27 | – | Non-toxic | inactive | – | Non-toxic | – | – | 300 | 300 | – | – | – | – | – |
| NNC(=S)NCCCC(=O)O | inactive | – | inactive | inactive | 27 | inactive | – | inactive | 300 | – | – | 300 | – | – | – | – | inactive | 300 | – |
| O=C1NC(=O)C(c2ccccc2)(c2ccccc2)N1 [PHENYTOIN] | inactive | – | inactive | inactive | – | inactive | – | inactive | 100 | – | – | 100 | – | – | – | – | inactive | 30 | – |
| C/C(=N\NC(=S)NCCCC(=O)O)c1ccccc1 | inactive | inactive | inactive | – | 90 | – | Non-toxic | inactive | – | Non-toxic | – | – | 100 | 100 | – | 300 | – | – | – |
| O=C(O)CCCNC(=S)N/N=C/c1ccccc1O | inactive | inactive | – | – | 92 | – | Non-toxic | inactive | – | Non-toxic | 100 | – | – | – | – | 100 | – | – | – |
| CN(C)c1ccc(/C=N/NC(=S)NCCCC(=O)O)cc1 | – | inactive | – | inactive | 88 | – | Non-toxic | inactive | – | Non-toxic | 300 | – | – | – | – | – | – | – | 300 |
| O=C(O)CCCNC(=S)NN=C1CCCCC1 | inactive | inactive | inactive | inactive | 78 | – | Non-toxic | inactive | – | Non-toxic | – | – | 300 | 300 | – | – | – | – | – |
| C/C(=N\NC(=S)NCCCC(=O)O)c1ccc(C)cc1 | inactive | inactive | inactive | inactive | 80 | inactive | Non-toxic | inactive | – | Non-toxic | – | – | – | – | – | – | inactive | – | – |
